Measured values as given in patent US20200199501A1, “SOLVENT COMPOSITIONS CONTAINING 1,2,2-TRIFLUORO-1-TRIFLUOROMETHYLCYCLOBUTANE (TFMCB)” (Honeywell International Inc., priority 2018, published 2020).

Assay: Acute inhalation toxicity (OECD Guideline No. 403)
Settings: in vivo, inhaled, OECD Guideline No. 403 (2009), Method B.2 of Commission Regulation (EC) No. 440/2008
Excerpt: LC50 is a measure of the acute toxicity of a compound. The acute inhalation toxicity of a compound can be assessed using the method described in the OECD Guideline for Testing of Chemicals No. 403 “Acute Inhalation Toxicity” (2009), Method B.2. (Inhalation) of Commission Regulation (EC) No. 440/2008.

For `FC(F)(F)C1(F)CCC1(F)F` (stereo not shown) [TFMCB, 1,2,2-trifluoro-1-trifluoromethylcyclobutane], the LC50 was > 19.1 µg/mL.
